Results on 14 compounds are retold here after patent publication US11834401B2, “Treating and preventing diseases by modulating cell mechanics” (THE JOHNS HOPKINS UNIVERSITY, priority 2013, dated 2023).

Data set [1] has as its system NLS-tdTomato expressing Dictyostelium cells. The note with it: for CIMPAQ hit category, kinase inhibitor collection / CIMPAQ hit category, ion channel collection: BIOMOL pilot screen; for CIMPAQ hit category, kinase inhibitor collection: 84 protein kinase inhibitors; for CIMPAQ hit category, ion channel collection: 70 ion channel inhibitors. As to the method: NLS-tdTomato expressing Dictyostelium cells were challenged with […] compounds from the ChemBridge Divert-SET library and imaged over three days. Raw data was segmented by CIMPAQ, a designed analytical platform, which rank ordered hits based on their cytokinesis or mitotic inhibitory activity, or lethality. Hits were confirmed through a dose-dependent secondary screening.
Ax3::NLS-tdTomato cells were plated on 384-well COP plates with a MicroFloSelect microplate dispenser (BioTek, Winooski, Vt.) at volumes of 80 μl with a cell concentration of 1000 cells/ml for the 24- and 48-hr time points and at the same volume with a cell concentration of 220 cells/ml for the 72-hr time point. Each plate contained four rows of untreated cells with 0.2% DMSO. For the remaining wells, […] of each small molecule maintained at the Johns Hopkins ChemCORE facility, was added, with a final DMSO concentration of 0.2%. Almost half of the ChemBridge Divert-SET library, which is a 50,000 compound chemical diversity library, was screened over a three-day period on a Becton Dickinson Pathway 855 Bioimager System using a 20× objective (NA 0.75). Each image consisted of a montage of four images collected around the center of the well, resulting in a total size of 1344×1024 pixels per image.
Secondary chemical screening was carried out in quadruplicate, with identical culturing conditions as to the primary screen. 14 mM stocks of each compounds dissolved in 100% DMSO were diluted to the following final concentrations: […], 3.5 nM, 35 nM, 350 nM, 3.5 μM, and 35 μM.
Raw image files from both the primary and secondary screening were processed through CIMPAQ (FIGS. 9E and 9F). The single wavelength fluorescence images were converted from 16-bit format to 8-bit format. The MATLAB Image Processing Toolbox was utilized to segment the images in order to identify the nuclei and cytoplasm. The number of nuclei within each segmented cell was quantified to produce a histogram of nuclei per cell for each image (FIG. 9G). All segmented cells that were coincident with the image edge were disregarded.
Image analysis using CIMPAQ: From the histogram of nuclei per cell count, the ratio of the number of multinucleate cells to the number of mononucleate cells and the ratio of the number of binucleate cells to the number of mononucleate cells were computed. Multinucleate cells are defined as cells that contain >2 nuclei. The distribution of both ratios across multiple wells were simultaneously visualized using a scatter plot, with the ratio of multinucleate cells to mononucleate cells plotted on the x-axis and the ratio of binucleate cells to mononucleate cells plotted on the y-axis (FIGS. 9H and 9I). Other information such as the average number of nuclei per cell, the mean nuclear area, and the normalized histogram with respect to total cell number were also computed.
Hit identification using CIMPAQ: Compounds that generate an increase in the number of multinucleate (>2 nuclei/cell) cells are considered cytokinesis inhibitors. Because nearly all cultured cells, including Dictyostelium, have a low background (typically <5% for WT) of non-mononucleate cells, CIMPAQ spreads the data for each sample by determining the ratio (bi:mono) of binucleate (2 nuclei/cell) to mononucleate cells and the ratio (multi:mono) of multinucleate (>2 nuclei/cell) to mononucleate cells. These two ratios then define a set of Cartesian coordinates, describing the effect of each compound on a given cell-line. The coordinates for each compound are plotted on a two-dimensional graph. CIMPAQ fits the control data to a two-dimensional Gaussian distribution (FIG. 9H) and determines the contour lines for two standard deviations (2SD), 3SD, etc. from the control mean (FIG. 9I).
Hit compounds are rank-ordered based on how many SDs away they are from the untreated wells.

Data set [2] deals with EGF receptor tyrosine kinase (Homo sapiens, UniProt P00533). The note with it: cited from earlier work.
A short description of data set [3]: Degradation/stability of carbamate-7 in solvent (TLC, HPLC). The format is physicochemical. The note with it: standing in methanol. On the procedure: Upon standing in methanol, the product obtained above degraded within 2.5 hr, as determined by TLC analysis. Degradation appeared more rapid in DMSO, the solvent used to generate stock solutions for biological evaluation. Thus, carbamate-7 obtained either by chemical synthesis or commercially from ChemBridge was dissolved in DMSO (1 mg/mL), and a time course to study its degradation was initiated immediately upon solvation. To stop the degradation reaction such that the product distribution could be captured at early time points, aliquots (40 μL) were rapidly frozen into Eppendorf tubes incubating on dry ice. HPLC analysis on a Beckman Gold Nouveau HPLC System was performed on each sample immediately upon thawing. Carbamate-7 (5180622) degradation products were eluted at 3 mL/min from a Grace Alltima C18 column (length=53 mm, ID=7 mm, particle size=3 μM) over a linear gradient (5:95 acetonitrile/100 mM NH4OAc (pH 6.8) to 100% 100 mM NH4OAc (pH 6.8) over 15 min).
Comparison of the urea product to authentic N,N′-Bis(3,4-dichlorophenyl) urea was performed using a linear gradient (5:95 acetonitrile/100 mM NH4OAc (pH 6.8) to 100% 100 mM NH4OAc (pH 6.8) over 5 min). […] Confirmation of the urea was further confirmed via characteristic fragmentation patterns determined using product ion (MS-MS) analysis monitoring in negative ion mode (FIG. 11C).

The next data set deals with Dictyostelium cells. In words: Micropipette aspiration cortical tension, Dictyostelium. The format is cell-based, Dictyostelium discoideum. The conditions noted are these: acute treatment; 700 μM printed. On the procedure:
(§1) Micropipette aspiration was used for cortical tension and creep response measurements. Confocal imaging was performed on a Zeiss 510 Meta with a 63× (numerical aperture [NA] 1.4) objective (Carl Zeiss, Jena, Germany). Epifluorescence and TIRF imaging was performed in a 22° C. temperature controlled room with an Olympus IX81 microscope using a 40× (NA 1.3) or 60× (NA 1.49) objective and a 1.4× optovar (Olympus, Center Valley, Pa.), as previously described. Image analysis was performed with ImageJ (rsb.info.nih.gov/ij).
The instrumental and experimental setups have been previously described (Effler J C, et al., 2006; Kee Y-S, et al., 2013). Micropipette aspiration assays were all carried out in growth media with 0.1% DMSO. For cortical tension measurements of Dictyostelium cells, pressure was applied to the cell cortex with a micropipette (2-3 m radius, Rp) to the equilibrium pressure (ΔP) where the length of the cell inside the pipette (Lp) was equal to Rp. The effective cortical tension (Teff) was calculated by applying the Young-Laplace equation: ΔP=2Teff(1/Rp-1/Rc), where Rc is the radius of the cell and ΔP is the equilibrium pressure when Lp=Rp (Derganc J, et al., 2000; Octtaviani E, et al., 2006). For creep tests on mammalian strains, a constant aspiration stress was applied over 60 s. The micropipette radius was 3.5-4.5 m. For quantification, the Lp/Rp ratio values was measured every two seconds and plotted as a function of time. A10.7 and HEK293 cells could only be aspirated at a low pressure range (0.15 nN/μm^2), while HPDE, ASPC-1, and HL-60 cells could be aspirated at higher pressure ranges (0.25 nN/μm^2) because they were stiffer.

A further data set deals with T1, myosin II (Dictyostelium discoideum, UniProt P08799).
T1 construct: expressed in transfected cells; host or cells: Dictyostelium discoideum myoII null cells rescued with GFP-myosin II
In words: Myosin II cortical localization by SIM, TIRF and confocal imaging. The note with it: 500 nM time course. The class given is cell-based. As to the method:
as §1
Imaging conditions during primary screen are described above. All other image analysis was performed as previously described (Kee Y S, et al., 2012). Cells were transferred from Petri dishes (with 0.1% DMSO incubation in growth media of 4 hrs) to imaging chambers and allowed to adhere for 20 min in growth media with 0.1% DMSO. After the cells adhered, the growth media was replaced with 2-(N-morpholino)ethanesulfonic acid (MES) starvation buffer (50 mM MES, pH 6.8, 2 mM MgCl2, 0.2 mM CaCl2) with 0.1% DMS. Confocal imaging was performed on aZeiss 510 Meta with a 63× (numerical aperture [NA] 1.4) objective (Carl Zeiss, Jena, Germany). Epifluorescence and TIR imaging was performed in a 22° C. temperature controlled room with an Olympus IX81 microscope using a 40× (NA 1.3) or 60× (NA […]) objective and a 1.4× optovar (Olympus, Center Valley, Pa.), as previously described. Image analysis was performed with ImageJ (rsb.info.nih.gov/ij). Many data sets were independently analyzed by multiple investigators.

EGF receptor tyrosine kinase, sequence (P00533 25-1210): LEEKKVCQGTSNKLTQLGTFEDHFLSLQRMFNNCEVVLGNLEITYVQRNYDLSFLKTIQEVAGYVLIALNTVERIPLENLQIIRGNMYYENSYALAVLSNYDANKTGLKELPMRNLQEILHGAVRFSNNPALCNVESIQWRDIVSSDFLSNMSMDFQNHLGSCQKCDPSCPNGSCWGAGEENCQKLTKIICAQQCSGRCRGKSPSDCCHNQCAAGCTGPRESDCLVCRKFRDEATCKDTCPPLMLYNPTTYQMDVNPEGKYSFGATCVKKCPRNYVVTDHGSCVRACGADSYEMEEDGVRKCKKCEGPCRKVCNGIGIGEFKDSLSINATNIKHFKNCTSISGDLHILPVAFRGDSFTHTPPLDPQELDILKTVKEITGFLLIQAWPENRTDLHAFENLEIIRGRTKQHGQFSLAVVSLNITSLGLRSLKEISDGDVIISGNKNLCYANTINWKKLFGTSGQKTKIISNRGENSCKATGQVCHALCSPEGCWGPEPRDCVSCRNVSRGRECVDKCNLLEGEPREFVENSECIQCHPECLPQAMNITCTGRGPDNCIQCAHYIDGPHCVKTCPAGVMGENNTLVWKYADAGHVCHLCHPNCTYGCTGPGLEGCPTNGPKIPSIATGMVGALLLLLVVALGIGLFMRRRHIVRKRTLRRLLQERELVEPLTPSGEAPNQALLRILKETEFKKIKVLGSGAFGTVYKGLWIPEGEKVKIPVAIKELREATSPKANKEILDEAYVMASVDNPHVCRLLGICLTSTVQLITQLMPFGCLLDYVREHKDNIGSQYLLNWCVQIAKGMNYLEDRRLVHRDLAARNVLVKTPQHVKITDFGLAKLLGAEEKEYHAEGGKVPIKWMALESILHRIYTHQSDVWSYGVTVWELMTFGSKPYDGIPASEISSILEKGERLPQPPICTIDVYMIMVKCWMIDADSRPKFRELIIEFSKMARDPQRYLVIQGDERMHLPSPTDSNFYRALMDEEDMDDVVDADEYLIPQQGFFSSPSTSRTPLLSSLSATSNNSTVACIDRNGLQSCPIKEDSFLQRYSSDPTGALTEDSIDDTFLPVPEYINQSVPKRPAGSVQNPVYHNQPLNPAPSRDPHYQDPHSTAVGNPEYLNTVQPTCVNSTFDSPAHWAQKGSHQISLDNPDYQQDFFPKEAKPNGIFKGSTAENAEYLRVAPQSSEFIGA
T1 sequence (P08799 whole entry): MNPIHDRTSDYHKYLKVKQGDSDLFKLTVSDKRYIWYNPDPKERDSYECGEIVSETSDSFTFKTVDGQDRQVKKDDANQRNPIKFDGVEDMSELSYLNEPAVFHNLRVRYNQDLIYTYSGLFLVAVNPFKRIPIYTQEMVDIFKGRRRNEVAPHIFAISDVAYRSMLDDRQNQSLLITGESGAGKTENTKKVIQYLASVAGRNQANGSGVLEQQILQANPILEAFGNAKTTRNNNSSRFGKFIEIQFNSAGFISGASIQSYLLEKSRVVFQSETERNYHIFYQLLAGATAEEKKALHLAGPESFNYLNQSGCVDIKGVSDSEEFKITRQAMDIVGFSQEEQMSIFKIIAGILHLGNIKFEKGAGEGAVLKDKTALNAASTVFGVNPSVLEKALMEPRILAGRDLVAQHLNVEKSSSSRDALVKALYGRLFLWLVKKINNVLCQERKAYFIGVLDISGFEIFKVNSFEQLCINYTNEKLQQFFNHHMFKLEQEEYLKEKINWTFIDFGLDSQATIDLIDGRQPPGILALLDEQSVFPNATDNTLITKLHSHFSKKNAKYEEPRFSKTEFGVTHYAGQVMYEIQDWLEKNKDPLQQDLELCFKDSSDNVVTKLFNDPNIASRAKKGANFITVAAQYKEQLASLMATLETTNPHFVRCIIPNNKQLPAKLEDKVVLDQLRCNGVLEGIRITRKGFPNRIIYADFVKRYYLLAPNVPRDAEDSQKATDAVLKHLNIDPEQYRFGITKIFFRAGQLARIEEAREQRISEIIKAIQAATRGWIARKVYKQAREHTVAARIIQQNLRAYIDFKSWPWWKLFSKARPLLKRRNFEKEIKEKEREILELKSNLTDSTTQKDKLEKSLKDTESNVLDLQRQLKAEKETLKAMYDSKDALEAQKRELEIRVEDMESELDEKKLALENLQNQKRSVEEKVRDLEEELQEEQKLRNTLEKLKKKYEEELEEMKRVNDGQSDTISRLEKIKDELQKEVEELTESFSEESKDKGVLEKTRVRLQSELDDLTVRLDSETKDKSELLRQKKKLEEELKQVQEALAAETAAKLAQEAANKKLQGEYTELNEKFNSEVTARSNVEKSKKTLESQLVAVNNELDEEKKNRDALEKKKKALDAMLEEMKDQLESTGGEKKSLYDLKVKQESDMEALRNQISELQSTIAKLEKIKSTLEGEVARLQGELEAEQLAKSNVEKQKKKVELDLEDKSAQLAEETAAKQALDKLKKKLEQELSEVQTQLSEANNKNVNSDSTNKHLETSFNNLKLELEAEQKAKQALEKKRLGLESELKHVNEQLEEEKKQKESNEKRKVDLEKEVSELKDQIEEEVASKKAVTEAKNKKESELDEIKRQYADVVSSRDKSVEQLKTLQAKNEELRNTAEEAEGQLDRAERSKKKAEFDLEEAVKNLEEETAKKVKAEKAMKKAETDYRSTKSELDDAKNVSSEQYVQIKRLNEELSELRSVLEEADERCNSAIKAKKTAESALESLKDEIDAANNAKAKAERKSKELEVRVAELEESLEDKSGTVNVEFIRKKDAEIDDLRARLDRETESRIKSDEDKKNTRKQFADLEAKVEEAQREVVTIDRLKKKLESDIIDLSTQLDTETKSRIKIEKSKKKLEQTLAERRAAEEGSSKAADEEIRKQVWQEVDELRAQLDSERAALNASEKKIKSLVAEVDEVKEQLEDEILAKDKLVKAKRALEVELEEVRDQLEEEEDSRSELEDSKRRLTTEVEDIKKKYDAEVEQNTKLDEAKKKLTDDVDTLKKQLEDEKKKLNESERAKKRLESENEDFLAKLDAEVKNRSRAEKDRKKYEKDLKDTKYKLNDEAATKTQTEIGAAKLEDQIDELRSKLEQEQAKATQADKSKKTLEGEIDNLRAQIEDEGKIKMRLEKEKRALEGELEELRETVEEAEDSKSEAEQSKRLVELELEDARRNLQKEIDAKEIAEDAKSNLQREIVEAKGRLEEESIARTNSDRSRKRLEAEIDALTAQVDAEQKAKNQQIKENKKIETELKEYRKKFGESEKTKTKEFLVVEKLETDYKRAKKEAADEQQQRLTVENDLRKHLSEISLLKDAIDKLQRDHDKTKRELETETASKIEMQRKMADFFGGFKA

With `CCCCCCCCCCCCCCCC(=O)OC(CC(=O)O)C[N+](C)(C)C.[Cl-]` (racemic) [Palmitoyl-DL-carnitine Cl], in data set [1], the “CIMPAQ hit category, kinase inhibitor collection” value is recorded as “Lethal at 10 μM”.

As for `O=C(O)c1cc(NCc2cc(O)ccc2O)ccc1O` [2-Hydroxy-5-(2,5-dihydroxybenzylamino) benzoic acid], in data set [1], the “CIMPAQ hit category, kinase inhibitor collection” value was “Lethal at 10 μM”.

Turning to `C/C(CCc1ccccc1)=N\Nc1ccc([N+](=O)[O-])cc1` [4-phenyl-2-butanone (4-nitrophenyl) hydrazone], the cell division entry in data set [1] (Dictyostelium Drug Discovery Platform (3DP)) is given as “inhibit cell division”.

On to `N#CC(=Cc1ccc2[nH]ccc2c1)C(N)=C(C#N)C#N` [AG-370], for which, in data set [1], the “CIMPAQ hit category, kinase inhibitor collection” value is listed as “Lethal at 5 μM”.

As for `CNc1ccc2oc(C[C@H]3O[C@@]4(CC[C@H]3C)O[C@H]([C@H](C)C(=O)c3ccc[nH]3)[C@H](C)C[C@H]4C)nc2c1C(=O)O` [Antibiotic A-23187], the “CIMPAQ hit category, ion channel collection” value in data set [1] is “Lethal at 5 μM”.

Regarding `CC(C)COCC(CN(Cc1ccccc1)c1ccccc1)N1CCCC1` (stereo not drawn) [Bepridil], in data set [1], the “CIMPAQ hit category, ion channel collection” value was “Lethal at 5 μM”.

With `COC(=O)/C=C/c1cc(O)ccc1O` [Erbstatin analog], the “known IC50” value in data set [2] is reported as “inhibitor; known IC50 (0.5 μg/ml”.

For the compound `COc1cccc(-c2cc(=O)c3ccccc3o2)c1N` [PD-98059], the “CIMPAQ hit category, kinase inhibitor collection” value in data set [1] was “Lethal at 5 μM”.

As for `Cc1ccc(-c2nn(C(C)(C)C)c3ncnc(N)c23)cc1` [PP1], the “CIMPAQ hit category, kinase inhibitor collection” value in data set [1] is recorded as “Lethal at 5 μM”.

On to `COc1ccc(CCCOC(Cn2ccnc2)c2ccc(OC)cc2)cc1` (stereo not drawn) [SKF-96365], for which the “CIMPAQ hit category, ion channel collection” value in data set [1] is on record as “Lethal at 5 μM”.

Take `CC(C)(C)c1cc(C=C(C#N)C#N)cc(C(C)(C)C)c1O` [Tyrphostin 9]: in data set [1], the “CIMPAQ hit category, kinase inhibitor collection” value is on record as “Lethal at 5 μM”.

On to `CC(=O)c1ccc(OC(=O)Nc2ccc(Cl)c(Cl)c2)cc1` [carbamate-7, 4-acetylphenyl-(3,4-dichlorophenyl) carbamate], for which, in data set [3], the time to degradation is ≤ 2.5 h. The “increase in cortical tension” value in the data set with Dictyostelium cells is 1.4 fold.

Take `COC(=O)Nc1nc2ccc(C(=O)c3cccs3)cc2[nH]1` [nocodazole]: in data set [1], the “identification as early mitotic inhibitor (average nuclear area greater than 28 pixels)” value is reported as “reliably identified”.

Regarding `O=C(Nc1ccc(Cl)c(Cl)c1)Nc1ccc(Cl)c(Cl)c1` [urea, N,N′-bis(3,4-dichlorophenyl)urea], the “changes in myosin II cortical distribution (TIRF)” value at myosin II is “Neither 3,4-DCA nor the urea result in changes in myosin II cortical distribution”.
